Patent US8324197B2, “Transplatinum complexes with N2O2 donor sets as cytotoxic and antitumor agents” (Virginia Commonwealth University, priority 2005, dated 2012)

Legend:
[1] = system: guanosine-5′-monophosphate (5′-GMP, model for DNA); test: Reaction with 5′-GMP followed by 195Pt NMR; conditions: within 24 h
Text: The slow hydrolysis is a unique feature of two carboxylate ligands in a trans-axial position and can be modulated by choice of carboxylate. To examine how this might affect possible reactions with biomolecules, a preliminary study of the reactions of 4e with guanosine-5′-monophosphate (5′-GMP, model for DNA) and N-acetyl-L-methionine (N-AcMet, model for sulfur ligand metabolism) was made by ^195Pt NMR Spectroscopy. In the case of 5′-GMP the peak of the starting material at −1450 ppm is only gradually replaced by a new peak at −2365 ppm. This shift is consistent with the formation of a species that has a PtN4 coordination sphere,^26 due to replacement of both formate groups. Approximately 50% reaction (as judged by the intensity of the ^1H H8 signal and ^195Pt NMR signals), occurred within 24h. For N-AcMet the starting material was approximately 50% of total intensity even after 8 h. […] The chemical shift is consistent with a PtN2O2 coordination sphere—this could arise from displacement of formate by H2O/OH or an O-bound methionine.^27 This species preceded the formation of the N-AcMet product at −3320 ppm consistent with a PtN2S2 coordination sphere, trans-[Pt(NH3)(4-pic)(NAcMet)2],^23,28 which was 40% of the total platinum species after 10 h. […]

[2] = Reaction with N-AcMet followed by 195Pt NMR
Text: The slow hydrolysis is a unique feature of two carboxylate ligands in a trans-axial position and can be modulated by choice of carboxylate. To examine how this might affect possible reactions with biomolecules, a preliminary study of the reactions of 4e with guanosine-5′-monophosphate (5′-GMP, model for DNA) and N-acetyl-L-methionine (N-AcMet, model for sulfur ligand metabolism) was made by ^195Pt NMR Spectroscopy. In the case of 5′-GMP the peak of the starting material at −1450 ppm is only gradually replaced by a new peak at −2365 ppm. This shift is consistent with the formation of a species that has a PtN4 coordination sphere,^26 due to replacement of both formate groups. Approximately 50% reaction (as judged by the intensity of the ^1H H8 signal and ^195Pt NMR signals), occurred within 24h. For N-AcMet the starting material was approximately 50% of total intensity even after 8 h. […] The chemical shift is consistent with a PtN2O2 coordination sphere—this could arise from displacement of formate by H2O/OH or an O-bound methionine.^27 This species preceded the formation of the N-AcMet product at −3320 ppm consistent with a PtN2S2 coordination sphere, trans-[Pt(NH3)(4-pic)(NAcMet)2],^23,28 which was 40% of the total platinum species after 10 h. […] Whether the possible formation of an O-bound methionine species is a reflection of the low pKal and the electronic effects of a π-acceptor ligand is worthy of further investigation.

[3] = system: human ovarian cancer cell line A2780; test: MTT growth inhibition assay; format: cell-based; conditions: 72 h
Text: • (1) Van Beusichem, M.; Farrell, N. Inorg. Chem. 1992, 31, 634-639. • (2) Farrell, N.; Kelland, L. R.; Roberts, J. D.; Van Beusichem, M. Cancer Res. 1992, 52, 5065-5072. • (3) Farrell, N. Cancer Invest. 1993, 11, 578-589. • (4) Coluccia, M.; Nassi, A.; Loseto, F.; Boccarelli, A.; Mariggio, M. A.; Giordano, D.; Intini, F. P.; Caputo, P.; Natile, G. J. Med. Chem. 1993, 36, 510-512. • (5) Khazanov, E.; Barenholz, Y.; Gibson, D.; Najajreh, Y. J. Med. Chem. 2002, 45, 5196-5204. • (6) Najajreh, Y.; Perez, J. M.; Navarro-Ranninger, C.; Gibson, D. J. Med. Chem. 2002, 45, 5189-5195. • (7) Montero, E. I.; Diaz, S.; Gonzalez-Vadillo, A. M.; Perez, J. M.; Alonso, C.; Navarro-Ranninger, C. J. Med. Chem. 1999, 42, 4264-4268. • (8) Natile, G.; Coluccia, M. Coord. Chem. Rev. 2001, 216-217, 383-410. • (9) Fojo, T.; Farrell, N.; Ortuzar, W.; Tanimura, H.; Weinstein, J.; Myers Timothy, G. I Crit. Rev. Oncol./ Hematol. 2005, 53, 25-34. • (10) Murphy, R. F.; Farrell, N.; Aguila, A.; Okada, M.; Balis, F. M.; Fojo, T. Proc. Am. Assoc. […] IC50 values were determined graphically

[4] = Solubility of TPA carboxylates, Example 6; format: physicochemical; conditions: aqueous; table title ambient temperature, text 37° C.
[5] = Initial hydrolysis of TPA carboxylates monitored by HPLC at 37° C.; format: physicochemical; conditions: H2O, I=0.02 M
Procedure: The slowest initial hydrolysis rate was found for complex 2c t-[Pt(OAc)2(NH3)(2-pic)], with just 4% hydrolysis occurring after 9 h. The hydrolysis of the formate complex 4f was the fastest, with 24% hydrolysis occurring after 9 h. The hydrolysis rates of the acetate complexes followed the pattern 2c<4c<3c. […] Thus, hydrolysis of the acetate complexes is slowed by an approximate order of magnitude compared to their direct chloro analogs but there is little difference in the present case between 3- and 4-picoline. Steric hindrance therefore predominates over the electronic effects of the methyl group. In the case of the chloride complexes, the 3-pic directs less electron density to the platinum rendering it less nucleophilic relative to the 2-pic and 4-pic. 14 We observe the same trend in the acetate complexes, but the effect is lessened due to the carboxylate group being a weak ligand, with a low trans influence and trans effect.^11

41M = test: Growth inhibition in human ovarian cancer cell line panel, 96 h exposure; format: cell-based
Procedure: (§1) It is noteworthy that the acetate compounds maintain cytotoxicity with low resistance factors in all cases. The trans-[Pt(OAc)2(NH3)2] compound is also very water-soluble but the cytotoxicity of >100 μM confirms the requirement for a planar amine to enhance cytotoxicity in the trans geometry.

CH1 = test: as above; format: cell-based
Procedure: as §1

A2780 = test: as above; format: cell-based
Procedure: as §1

[6] = pKa of corresponding TPA diaqua complexes by potentiometric titration with NaOH; format: physicochemical; conditions: corresponding diaqua complex trans-[Pt(OH2)2(L)(L′)], ambient temperature
Procedure: (§2) The aqueous solubility of the acetate compounds and the acid dissociation constants of the corresponding aqua species are given in Table 1. Use of acetates enhances aqueous solubility which is dependent on the exact nature of the donor ligands. The pKa values were determined by potentiometric titration of solutions of trans-[Pt(H2O)2(L)(L′)]^2+ (formed by the dissolution of the isolated trans-[Pt(NO3)2(L)(L′)]) with NaOH. […] (X=2,3,4-Me).^30

[7] = Hydrolysis (first aquation step) followed by HPLC, Example 5; format: physicochemical; conditions: nanopure water
Procedure: For hydrolysis studies, […] complex was dissolved in 1 mL of nanopure water. The pH values of the samples were controlled in regular intervals and readjusted if necessary by addition of HNO3 (1 M, 0.1 M, 0.01 M) or NaOH (1 M, 0.1 M, 0.01 M). Aliquots of 20 μL were taken from the bulk solution for HPLC analysis. The overall scheme may be described as follows:
The aquated species were identified by comparison with the hydrolysis profile produced by the corresponding (labile) nitrate compounds. The rate constants for the first aquation step k1 are given in Table 2 and compared with other platinum complexes containing one or two labile ligands. […] In particular, these rates are 2-3 orders of magnitude lower than that of transplatin itself. The rate of aquation tends toward that of carboplatin which in phosphate buffer at 310 K gave a hydrolysis rate of 7.2×10^−7 s^−1 (but in aqueous solution gives a barely measurable rate constant of <5×10^−9 s^−1, which is modulated by the presence of buffer, nucleophile or acid). ^31,32No evidence for formation of Pt(TV) species during hydrolysis is detected under these conditions.^33

[8] = Aqueous solubility of TPA-acetate complexes (sequential addition of water); format: physicochemical; conditions: ambient temperature
Procedure: as §2

[9] = RF = (IC50 Resistant)/(IC50 Sensitive)

Structure (SMILES)	reaction with 5′-GMP (by 1H H8 and 195Pt NMR signal intensity) [1]	starting material remaining, of total intensity ([2]; after 8 h)	N-AcMet product at −3320 ppm (PtN2S2), of total platinum species ([2]; after 10 h) [%]	new species at −1775 ppm (PtN2O2), of total reaction product ([2]; over 10 h) [%]	cytotoxicity (growth inhibition) [3]	Solubility (mg/mL), TPA Substituted Carboxylates [4] [mg/mL]	k1, initial hydrolysis rate constant [5] [s⁻¹]	IC50 (41M) [µM]	41M RF (41M; [9])	IC50 (CH1) [µM]	CH1 RF (CH1; [9])	IC50 (A2780) [µM]	A2780 RF (A2780; [9])	pKa1 [6]	pKa2 [6]	k1, rate constant for the first aquation step [7]	Solubility [8] [mg/mL]
Cc1ccncc1.N.O=C[O-].O=C[O-].[Pt+2] [4e, trans-[Pt(OFm)2(NH3)(4-pic)]]	Approximately 50%	Approximately 50%	40	≤ 15	most cytotoxic	35	1.07e-05	–	–	–	–	–	–	–	–	–	–
CC(=O)[O-].CC(=O)[O-].N.[Pt+2].c1ccc2cnccc2c1 [trans-[Pt(OAc)2(NH3)(iquin)], trans-[diacetato(ammine)(isoquinoline)platinum(II)]]	–	–	–	–	–	–	–	22	(0.26)	20	(0.37)	13	(1.69)	3.78	6.92	(7.4 ± 1.5) × 10^−7 s^−1	5.2
